Source: ChEMBL document CHEMBL1150069, “Ethnobotanical drug discovery based on medicine men's trials in the African savanna: screening of east African plants for antimicrobial activity II” (1993)
Converted amounts (≈) assume the structure as drawn.

Experiments:
[1] = test system: Schizosaccharomyces pombe; assay: Antimicrobial activity against Schizosaccharomyces pombe IFO 0342 after 2 days by twofold serial broth dilution method; type: functional; conditions: IFO 0342, 48 h
Wickerhamomyces anomalus = assay: Antimicrobial activity against Hansenula anomala IFO 0136 after 2 days by twofold serial broth dilution method; type: functional; conditions: IFO 0136, 48 h
Proteus vulgaris = assay: Antimicrobial activity against Proteus vulgaris IAM 12003 after 2 days by twofold serial broth dilution method; type: functional; conditions: IAM 12003, 48 h
Micrococcus luteus = assay: Antimicrobial activity against Micrococcus luteus IFO 3333 after 2 days by twofold serial broth dilution method; type: functional; conditions: IFO 3333, 48 h
Penicillium crustosum = assay: Antimicrobial activity against Penicillium crustosum Thom after 2 days by twofold serial broth dilution method; type: functional; conditions: 48 h
Mucor mucedo = assay: Antimicrobial activity against Mucor mucedo IFO 7684 after 2 days by twofold serial broth dilution method; type: functional; conditions: IFO 7684, 48 h
Cyberlindnera jadinii = assay: Antimicrobial activity against Candida utilis ATCC 42402 after 2 days by twofold serial broth dilution method; type: functional; conditions: Williopsis jadinii, ATCC 42402, 48 h
Saccharomyces cerevisiae = assay: Antimicrobial activity against Saccharomyces cerevisiae IFO 0203 after 2 days by twofold serial broth dilution method; type: functional; conditions: IFO 0203, 48 h
Pseudomonas aeruginosa = assay: Antimicrobial activity against Pseudomonas aeruginosa IAM 1007 after 2 days by twofold serial broth dilution method; type: functional; conditions: IAM 1007, 48 h
Escherichia coli = assay: Antimicrobial activity against Escherichia coli IFO 3545 after 2 days by twofold serial broth dilution method; type: functional; conditions: IFO 3545, 48 h
Bacillus subtilis = assay: Antimicrobial activity against Bacillus subtilis ATCC 6633 after 2 days by twofold serial broth dilution method; type: functional; conditions: ATCC 6633, 48 h
Staphylococcus aureus = assay: Antimicrobial activity against Staphylococcus aureus NCTC 8530 after 2 days by twofold serial broth dilution method; type: functional; conditions: NCTC 8530, 48 h
[2] = test system: Rhizopus microsporus var. chinensis; assay: Antimicrobial activity against Rhizopus chinensis IFO 4772 after 2 days by twofold serial broth dilution method; type: functional; conditions: IFO 4772, 48 h
Aspergillus niger = assay: Antimicrobial activity against Aspergillus niger ATCC 6275 after 2 days by twofold serial broth dilution method; type: functional; conditions: ATCC 6275, 48 h
Sclerotinia = assay: Antimicrobial activity against Sclerotinia libertiana Ss after 2 days by twofold serial broth dilution method; conditions: 48 h

SMILES	MIC [1] [µg/mL]	MIC (Wickerhamomyces anomalus) [µg/mL]	MIC (Proteus vulgaris) [µg/mL]	MIC (Micrococcus luteus) [µg/mL]	MIC (Penicillium crustosum) [µg/mL]	MIC (Mucor mucedo) [µg/mL]	MIC (Cyberlindnera jadinii) [µg/mL]	MIC (Saccharomyces cerevisiae) [µg/mL]	MIC (Pseudomonas aeruginosa) [µg/mL]	MIC (Escherichia coli) [µg/mL]	MIC (Bacillus subtilis) [µg/mL]	MIC (Staphylococcus aureus) [µg/mL]	MIC [2] [µg/mL]	MIC (Aspergillus niger) [µg/mL]	MIC (Sclerotinia) [µg/mL]
C=C1[C@@H](C)CC[C@@]2(C)[C@H]1CC=C(C=O)[C@]2(O)C=O	25 (≈ 101 µM)	25 (≈ 101 µM)	> 100	> 100	50 (≈ 201 µM)	25 (≈ 101 µM)	3.13 (≈ 12.6 µM)	1.56 (≈ 6.28 µM)	> 100	> 100	> 100	> 100	100 (≈ 403 µM)	50 (≈ 201 µM)	3.13 (≈ 12.6 µM)
CC(C)=CCc1cc(/C=C/C(=O)c2ccc(O)cc2O)cc(CC=C(C)C)c1O [ABYSSINONE VI]					> 100	> 100	> 100	> 100	> 100	> 100	> 100	> 100			
CC(=O)O[C@@H]1C=C(C=O)[C@](O)(C=O)[C@@]2(C)CCCC(C)(C)[C@H]12 [CINNAMODIAL]			> 100	> 100	> 100	> 100	> 100	> 100	> 100	> 100	> 100	> 100	> 100	> 100	> 100
CC1(C)CCC[C@]2(C)[C@H](C=O)C(C=O)=CC[C@@H]12 [EPIPOLYGODIAL]	> 100	> 100	> 100	> 100	> 100	> 100	> 100	> 100	> 100	> 100	> 100	> 100	> 100	> 100	> 100
CC1(C)CCC[C@@]2(C)[C@H]1[C@@H](O)C=C(C=O)[C@]2(O)C=O [MUKAADIAL]	> 100	> 100	> 100	> 100	> 100	> 100	> 100	> 100	> 100	> 100	> 100	> 100	> 100	> 100	100 (≈ 375 µM)
CC1(C)CCC[C@]2(C)[C@@H](C=O)C(C=O)=CC[C@@H]12 [POLYGODIAL]	6.25 (≈ 26.7 µM)	1.56 (≈ 6.66 µM)	> 100	> 100	25 (≈ 107 µM)	6.25 (≈ 26.7 µM)	1.56 (≈ 6.66 µM)	0.78 (≈ 3.33 µM)	> 100	> 100	> 100	> 100	12.5 (≈ 53.3 µM)	25 (≈ 107 µM)	1.56 (≈ 6.66 µM)
CC1(C)CCC[C@@]2(C)[C@H]1CC=C(C=O)[C@]2(O)C=O [WARBURGANAL]	12.5 (≈ 49.9 µM)	12.5 (≈ 49.9 µM)	> 100	> 100	50 (≈ 200 µM)	25 (≈ 99.9 µM)	3.13 (≈ 12.5 µM)	3.13 (≈ 12.5 µM)	> 100	> 100	> 100	> 100	100 (≈ 399 µM)	50 (≈ 200 µM)	3.13 (≈ 12.5 µM)

Now from value to molecule:

MIC [1] [µg/mL]	MIC (Wickerhamomyces anomalus) [µg/mL]	MIC (Proteus vulgaris) [µg/mL]	MIC (Micrococcus luteus) [µg/mL]	MIC (Penicillium crustosum) [µg/mL]	MIC (Mucor mucedo) [µg/mL]	MIC (Cyberlindnera jadinii) [µg/mL]	MIC (Saccharomyces cerevisiae) [µg/mL]	MIC (Pseudomonas aeruginosa) [µg/mL]	MIC (Escherichia coli) [µg/mL]	MIC (Bacillus subtilis) [µg/mL]	MIC (Staphylococcus aureus) [µg/mL]	MIC [2] [µg/mL]	MIC (Aspergillus niger) [µg/mL]	MIC (Sclerotinia) [µg/mL]	SMILES
				> 100	50 (≈ 154 µM)	100 (≈ 308 µM)	100 (≈ 308 µM)	> 100	> 100	50 (≈ 154 µM)	50 (≈ 154 µM)				CC(C)=CCc1cc([C@@H]2CC(=O)c3ccc(O)cc3O2)ccc1O [ABYSSINONE II]
				> 100	> 100	> 100	> 100	> 100	> 100	12.5 (≈ 31.8 µM)	25 (≈ 63.7 µM)				CC(C)=CCc1cc([C@@H]2CC(=O)c3ccc(O)cc3O2)cc(CC=C(C)C)c1O [ABYSSINONE IV]
				> 100	> 100	> 100	> 100	> 100	> 100	> 100	> 100				CC1(C)C=Cc2cc([C@@H]3CC(=O)c4ccc(O)cc4O3)ccc2O1 [ABYSSINONE I]
				> 100	> 100	> 100	> 100	> 100	> 100	25 (≈ 61.2 µM)	50 (≈ 122 µM)				CC(C)=CCc1cc([C@@H]2CC(=O)c3c(O)cc(O)cc3O2)cc(CC=C(C)C)c1O [ABYSSINONE V]
				> 100	> 100	> 100	> 100	> 100	> 100	3.13 (≈ 7.97 µM)	3.13 (≈ 7.97 µM)				CC(C)=CCc1cc2c(cc1O)OC[C@H]1c3ccc(O)c(CC=C(C)C)c3O[C@@H]21 [ERYBRAEDIN C]
				> 100	25 (≈ 70.5 µM)	50 (≈ 141 µM)	50 (≈ 141 µM)	> 100	> 100	6.25 (≈ 17.6 µM)	12.5 (≈ 35.3 µM)				COc1ccc2c(c1CC=C(C)C)O[C@H]1c3ccc(O)cc3OC[C@@]21O [ERYTHRABYSSIN I]
				> 100	12.5 (≈ 38.8 µM)	50 (≈ 155 µM)	25 (≈ 77.6 µM)	> 100	> 100	6.25 (≈ 19.4 µM)	12.5 (≈ 38.8 µM)				CC1(C)C=Cc2c(ccc3c2O[C@H]2c4ccc(O)cc4OC[C@@H]32)O1 [PHASEOLIN]
				> 100	100 (≈ 308 µM)	> 100	> 100	> 100	> 100	25 (≈ 77.1 µM)	50 (≈ 154 µM)				CC(C)=CCc1c(O)ccc2c1O[C@H]1c3ccc(O)cc3OC[C@@H]21 [PHASEOLLIDIN]
				> 100	50 (≈ 122 µM)	100 (≈ 245 µM)	100 (≈ 245 µM)	> 100	> 100	25 (≈ 61.2 µM)	25 (≈ 61.2 µM)				CC(C)=CCc1cc(C2CC(=O)c3c(O)cc(O)cc3O2)cc(CC=C(C)C)c1O (stereo not drawn) [PHASEOLLIN]
